In ChEMBL document CHEMBL4330090, “The effect of replacing the ester bond with an amide bond and of overall stereochemistry on the activity of daptomycin” (2019):
Converted amounts (≈) assume the structure as drawn. The source made the active and inactive calls. The calls are words filed in the database; no cut-off is given here.

Columns and labels:
Lipid bilayer [1] = experiment: Binding affinity to DMPC/DMPG large unilamellar vesicles assessed as increase in intrinsic fluorescence in presence of >0.1 mM Ca2+ by fluorescence based assay
Bacillus subtilis [2] = experiment: Antibacterial activity against Bacillus subtilis 1046 in presence of 5 mM Ca2+; format: functional
Bacillus subtilis [3] = experiment: Antibacterial activity against Bacillus subtilis 1046 in presence of 1.25 mM Ca2+; format: functional
Lipid bilayer [4] = experiment: Binding affinity to DMPC/DMPG large unilamellar vesicles assessed as increase in intrinsic fluorescence in presence of >1 mM Ca2+ by fluorescence based assay
Staphylococcus aureus = experiment: Antibacterial activity against Staphylococcus aureus; format: functional
Lipid bilayer [5] = experiment: Binding affinity to DMPC/DMPG large unilamellar vesicles assessed as increase in intrinsic fluorescence in presence of 1 mM Ca2+ by fluorescence based assay
Lipid bilayer [6] = experiment: Binding affinity to DMPC/DMPG large unilamellar vesicles assessed as increase in intrinsic fluorescence in presence of 10 mM Ca2+ by fluorescence based assay
Lipid bilayer [7] = experiment: Binding affinity to DMPC/DMPG large unilamellar vesicles assessed as increase in intrinsic fluorescence in presence of >10 mM Ca2+ by fluorescence based assay

SMILES	Activity (Lipid bilayer [1])	MIC (Bacillus subtilis [2]) [µg/mL]	MIC (Bacillus subtilis [3]) [µg/mL]	Activity (Lipid bilayer [4])	MIC (Staphylococcus aureus) [µg/mL]	Activity (Lipid bilayer [5])	Activity (Lipid bilayer [6])	Activity (Lipid bilayer [7])
CCCCCCCCCC(=O)N[C@@H](Cc1c[nH]c2ccccc12)C(=O)N[C@@H](CC(N)=O)C(=O)N[C@@H](CC(=O)O)C(=O)N[C@@H]1C(=O)NCC(=O)N[C@@H](CCCCN)C(=O)N[C@@H](CC(=O)O)C(=O)N[C@H](C)C(=O)N[C@@H](CC(=O)O)C(=O)NCC(=O)N[C@H](CO)C(=O)N[C@@H](CCC(=O)O)C(=O)N[C@@H](Cc2c[nH]c3ccccc23)C(=O)O[C@@H]1C	Active	0.5	1.5	–	–	–	–	–
CCCCCCCCCC(=O)N[C@@H](Cc1c[nH]c2ccccc12)C(=O)N[C@@H](CC(N)=O)C(=O)N[C@@H](CC(=O)O)C(=O)N[C@@H]1C(=O)NCC(=O)N[C@@H](CCCCN)C(=O)N[C@@H](CC(=O)O)C(=O)N[C@H](C)C(=O)N[C@@H](CC(=O)O)C(=O)NCC(=O)N[C@H](CO)C(=O)N[C@@H](CCC(=O)O)C(=O)N[C@@H](Cc2c[nH]c3ccccc23)C(=O)N[C@@H]1C	–	10	50	Active	–	–	–	–
CCCCCCCCCC(=O)N[C@@H](Cc1c[nH]c2ccccc12)C(=O)N[C@H](CC(N)=O)C(=O)N[C@@H](CC(=O)O)C(=O)N[C@@H]1C(=O)NCC(=O)N[C@@H](CCCN)C(=O)N[C@@H](CC(=O)O)C(=O)N[C@H](C)C(=O)N[C@@H](CC(=O)O)C(=O)NCC(=O)N[C@H](CO)C(=O)N[C@@H]([C@H](C)CC(=O)O)C(=O)N[C@@H](CC(=O)c2ccccc2N)C(=O)O[C@@H]1C	Active	0.5	0.75	–	1.9 (≈ 1.17 µM)	–	–	–
CCCCCCCCCC(=O)N[C@H](Cc1c[nH]c2ccccc12)C(=O)N[C@H](CC(N)=O)C(=O)N[C@@H](CC(=O)O)C(=O)N[C@H]1C(=O)NCC(=O)N[C@H](CCCCN)C(=O)N[C@H](CC(=O)O)C(=O)N[C@@H](C)C(=O)N[C@H](CC(=O)O)C(=O)NCC(=O)N[C@@H](CO)C(=O)N[C@H](CCC(=O)O)C(=O)N[C@H](Cc2c[nH]c3ccccc23)C(=O)O[C@H]1C	–	100	> 200	–	–	Active	Active	–
CCCCCCCCCC(=O)N[C@@H](Cc1c[nH]c2ccccc12)C(=O)N[C@@H](CC(N)=O)C(=O)N[C@@H](CC(=O)O)C(=O)N[C@@H]1C(=O)NCC(=O)N[C@@H](CCCCN)C(=O)N[C@@H](CC(=O)O)C(=O)N[C@H](C)C(=O)N[C@@H](CC(=O)O)C(=O)NCC(=O)N[C@H](CO)C(=O)N[C@@H](CCC(=O)O)C(=O)N[C@@H](Cc2c[nH]c3ccccc23)C(=O)N[C@H]1C	–	10	> 100	–	–	–	–	Active
CCCCCCCCCC(=O)N[C@H](Cc1c[nH]c2ccccc12)C(=O)N[C@H](CC(N)=O)C(=O)N[C@@H](CC(=O)O)C(=O)N[C@H]1CNC(=O)[C@@H](Cc2c[nH]c3ccccc23)NC(=O)[C@@H](CCC(=O)O)NC(=O)[C@H](CO)NC(=O)CNC(=O)[C@@H](CC(=O)O)NC(=O)[C@H](C)NC(=O)[C@@H](CC(=O)O)NC(=O)[C@@H](CCCCN)NC(=O)CNC1=O	–	–	–	–	160 (≈ 99.9 µM)	–	–	–
